Patent publication US20080214565A1, “Oxazolidinone Derivatives as Antimicrobials” (priority 2003, published 2008)
In brackets after ≈: the same amount, converted by molar mass.

Columns and labels:
S. aureus ATCC 25923 = assay: MIC by agar incorporation method, S. aureus ATCC 25923; assay type: cell-based, Staphylococus aureus; settings: in vitro, 18 hours
From the text: (§1) The compounds of the invention display antibacterial activity when tested by the agar incorporation method. The following minimum inhibitory concentrations (μg/ml) were obtained for representative compounds of the invention which are given below in the following table.
(§2) 1) S. aureus ATCC 25923—Staphylococus aureus ATCC 25923 2) MRSA 15187—Methicillin Resistant Staphylococcus aureus 3) Ent. faecalis ATCC 29212—Enterococcus faecalis ATCC 29212 4) Ent. faecium 6A—Enterococcus faecium 6A Van®, Cipro® 5) Strep. pne. ATCC 6303—Streptococcus pneumoniae ATCC 6303 6) Strep. pyog. ATCC 19615—Streptococcus pyogenes 7) S. epidermidis—Staphylococcus epidermidis ATCC 12228
(§3) Briefly, the compounds were dissolved in dimethylsulfoxide and doubling dilution of the compounds were incorporated into Meer Hilton agar before solidification. Inoculum was prepared by suspending 4 to 5 colonies into 5 ml of normal saline solution and adjusting the turbility to 0.5 Macfarland turbidity standard tables (1.5×10^8 CFU/ml), after appropriate dilutions, 10^4 CFU/spot was transferred into the surface of dried plate and incubated for 18 hours (24 hours for MRSN studies). The concentration showing no growth of the inoculated culture was recorded as the MIC. Appropriate ATCC standard strains were simultaneously tested and result recorded only when the MIC's against standard antibiotics were within the acceptable range.

VRE 6A (Ent. faecium 6A) = assay: MIC by agar incorporation method, VRE 6A; assay type: cell-based, Enterococcus faecium; settings: in vitro, 18 hours
From the text: as §1, §2, §3

MRSA 15187 = assay: MIC by agar incorporation method, MRSA 15187; assay type: cell-based, Methicillin Resistant Staphylococcus aureus; settings: in vitro, 24 hours
From the text: as §1, §2, §3

MRSA 33 = assay: MIC by agar incorporation method, MRSA 33; assay type: cell-based, Methicillin Resistant Staphylococcus aureus; settings: in vitro, 24 hours
Description: as §1, §3

Strep. pyog. ATCC 19615 = assay: MIC by agar incorporation method, S. pyogenes 19615; assay type: cell-based, Streptococcus pyogenes; settings: in vitro, 18 hours
From the text: as §1, §2, §3

S. pneum AB34 = assay: MIC by agar incorporation method, S. pneum AB34; assay type: cell-based, Streptococcus pneumoniae; settings: in vitro, 18 hours
Description: as §1, §3

Strep. pne. ATCC 6303 = assay: MIC by agar incorporation method, S. pneum 6303; assay type: cell-based, Streptococcus pneumoniae; settings: in vitro, 18 hours
From the text: as §1, §2, §3

MRSA 562 = assay: MIC by agar incorporation method, MRSA 562; assay type: cell-based, Methicillin Resistant Staphylococcus aureus; settings: in vitro, 24 hours
Description: as §1, §3

Ent. faecalis ATCC 29212 = assay: MIC by agar incorporation method, E. faecalis 29212; assay type: cell-based, Enterococcus faecalis; settings: in vitro, 18 hours
From the text: as §1, §2, §3

For `NC(=S)NC[C@H]1CN(c2ccc(N3CCN(Cc4ccc([N+](=O)[O-])s4)CC3)c(F)c2)C(=O)O1` [Compound No. 12, (S)—N-[1-[[3-[3-Fluoro-4-[N-1-[4-{2-thienyl-(5-nitro)methyl}]piperazinyl]phenyl]-2-oxo-5-oxazolidinyl]methyl]]-thiourea], the “minimum inhibitory concentration, S. aureus 259231” value (S. aureus ATCC 25923) was 1 µg/mL (≈ 2.02 µM), the “minimum inhibitory concentration, VRE 6A” value (VRE 6A (Ent. faecium 6A)) was 0.5 µg/mL (≈ 1.01 µM) and the “minimum inhibitory concentration, MRSA 15187” value (MRSA 15187) was 0.5 µg/mL (≈ 1.01 µM). The “minimum inhibitory concentration, MRSA 33” value (MRSA 33) was 1 µg/mL (≈ 2.02 µM), the “minimum inhibitory concentration, S. pyogenes 19615” value (Strep. pyog. ATCC 19615) was under 0.25 µg/mL and the “minimum inhibitory concentration, S. pneum AB34” value (S. pneum AB34) was 0.5 µg/mL (≈ 1.01 µM). The “minimum inhibitory concentration, S. pneum 6303” value (Strep. pne. ATCC 6303) was 0.5 µg/mL (≈ 1.01 µM), the “minimum inhibitory concentration, MRSA 562” value (MRSA 562) was 0.5 µg/mL (≈ 1.01 µM) and the “minimum inhibitory concentration, E. faecalis 29212” value (Ent. faecalis ATCC 29212) was 1 µg/mL (≈ 2.02 µM).
For `NC(=S)NC[C@H]1CN(c2ccc(N3CCN(Cc4ccc([N+](=O)[O-])o4)CC3)c(F)c2)C(=O)O1` [Compound No. 10, (S)—N-[1-[[3-[3-Fluoro-4-[N-1-[4-{2-furyl-(5-nitro)methyl}]piperazinyl]phenyl]-2-oxo-5-oxazolidinyl]methyl]]-thiourea], the “minimum inhibitory concentration, S. aureus 259231” value (S. aureus ATCC 25923) was 1 µg/mL (≈ 2.09 µM), the “minimum inhibitory concentration, VRE 6A” value (VRE 6A (Ent. faecium 6A)) was 1 µg/mL (≈ 2.09 µM) and the “minimum inhibitory concentration, MRSA 15187” value (MRSA 15187) was 1 µg/mL (≈ 2.09 µM). For the same molecule, the “minimum inhibitory concentration, MRSA 33” value (MRSA 33) was 1 µg/mL (≈ 2.09 µM), the “minimum inhibitory concentration, S. pyogenes 19615” value (Strep. pyog. ATCC 19615) was 0.25 µg/mL (≈ 0.522 µM) and the “minimum inhibitory concentration, S. pneum AB34” value (S. pneum AB34) was 0.24 µg/mL (≈ 0.502 µM). For the same molecule, the “minimum inhibitory concentration, S. pneum 6303” value (Strep. pne. ATCC 6303) was under 0.06 µg/mL, the “minimum inhibitory concentration, MRSA 562” value (MRSA 562) was 1 µg/mL (≈ 2.09 µM) and the “minimum inhibitory concentration, E. faecalis 29212” value (Ent. faecalis ATCC 29212) was 0.5 µg/mL (≈ 1.04 µM).
